Measured values taken from article PMC6930524, “A Prospective Repurposing of Dantrolene as a Multitarget Agent for Alzheimer’s Disease” (Molecules, 2019).

Assays:
physchem = settings: pH 7.4
Method: In order to check the hydrolytic stability of DAN in buffered media, we used a HPLC method to check the stability of 20 μM DAN in phosphate buffered saline (PBS) at physiological pH of 7.4, at 37 °C.
The chromatographic data were acquired using the Waters Breeze software (version 3.20). Analyses were performed on a Phenomenex C18 column (150 × 4.6 mm i.d., 3 µm particle size; Phenomenex srl, Castel Maggiore, Italy) using a mobile phase of methanol/water (75:25 v/v), with aqueous formic acid 0.1%. The used flow rate was 0.5 mL/min and the injection volume was 20 µL. Wavelength UV-Vis detector was set at 380 nm.
The chemical stability of dantrolene sodium was evaluated in a phosphate buffered saline solution pH 7.4 (10 mM HPO4^2−/H2PO4^−, 100 mM NaCl) at 37 °C. Samples were tested in triplicate starting from three different stocks solution (1 mM), which were prepared separately.

[1] = biological target: T1, human recombinant AChE (hAChE) (Homo sapiens, UniProt P22303); assay: biochemical; assay type: biochemical
T1 construct: purchased Sigma-Aldrich Europe (Milan, Italy)
T1 sequence (P22303 32-614): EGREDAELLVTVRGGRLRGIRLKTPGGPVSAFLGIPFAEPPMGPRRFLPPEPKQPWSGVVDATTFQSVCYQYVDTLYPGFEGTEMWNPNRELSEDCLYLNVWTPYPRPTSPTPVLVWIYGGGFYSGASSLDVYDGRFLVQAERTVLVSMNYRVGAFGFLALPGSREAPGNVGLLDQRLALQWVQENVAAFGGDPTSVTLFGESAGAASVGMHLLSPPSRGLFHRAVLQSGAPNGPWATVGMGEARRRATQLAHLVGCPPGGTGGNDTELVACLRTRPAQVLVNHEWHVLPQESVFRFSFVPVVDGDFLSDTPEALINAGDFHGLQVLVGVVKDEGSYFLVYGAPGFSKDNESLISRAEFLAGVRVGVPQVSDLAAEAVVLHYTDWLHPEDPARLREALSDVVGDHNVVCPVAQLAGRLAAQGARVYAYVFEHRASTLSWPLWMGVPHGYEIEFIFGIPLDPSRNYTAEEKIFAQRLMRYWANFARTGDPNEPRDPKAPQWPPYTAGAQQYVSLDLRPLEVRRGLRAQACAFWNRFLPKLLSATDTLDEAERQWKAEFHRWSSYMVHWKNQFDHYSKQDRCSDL
Method: An already published method was used to apply the Ellman’s spectrophotometric assay to the 96-well plate technique. […] Experiments were performed in duplicate in transparent, flat-bottomed polystyrene 96-well microtiter plates, and readings made with Tecan Infinite M1000 Pro instrument.

[2] = DPPH radical scavenging assay; assay type: physicochemical; settings: compound 50 μM, DPPH 100 μM
From the text: Starting from these evidences, we tested DAN in two in vitro models of radical scavenging activity, i.e., the 1,1-diphenyl-2-picryl-hydrazyl (DPPH) and 2,2′-azinobis-(3-ethylbenzothiazoline-6-sulfonic acid) (ABTS) free radical production. Both generate stable nitrogen radicals showing high absorption in visible spectrum, thus allowing easy and straightforward spectrophotometric measures. […] It can be assumed that the antioxidant activity of DAN is independent from its radical scavenging properties.
Already published protocols for DPPH and […] radical scavenging were used. The scavenging of the radical DPPH^·, or the monocation radical ABTS^·+, were determined by measuring the loss of absorbance at 515 or 755 nm, respectively. Samples were prepared in clear polystyrene flat-bottomed 96-well microplates. […] A preliminary absorbance reading at 755 nm allowed to determine the actual ABTS^·+ concentration (normally 60–70 μM; extinction coefficient ε = 12,000) and set the final concentration of inhibitors to 0.2[ABTS^·+]. 215 μL of ABTS^·+ solution were mixed with 35 μL of stock solution of inhibitors and the decrease in absorbance was monitored. Antioxidant activity was determined from Equation (2) as the percentage of radical production of inhibitor containing samples, compared with control: % radical production = 100 × ABSsample/ABScontrol(2)

[3] = system: CAC mutants C136S, C155S, C136/155S, C-lessV; assay: Transport activity of cysteine-modified CAC mutants in proteoliposomes; assay type: biochemical, rat; settings: 10 μM, C-less V compared with WT
Method: The reducing properties of DAN were studied on the recombinant WT CAC with the protein at different states of oxidation. Figure 8B highlights that when the carrier was incubated during the transport activity with 1 mM dithioerythritol (DTE), 10 µM DAN was able to reduce a major aliquot of oxidized protein (70% recovery of activity compared to the control). […] To identify the cysteines responsible for the activation of the CAC carrier, the proteoliposomes of the WT protein and the mutants C136S, C155S, C136/155S, and C-lessV (C23V/C58V/C89S/C136V/C155V/C283S) were incubated with 10 μM DAN. […] Further evidence of the reducing action of DAN on CAC was obtained by oxidation of the reconstituted WT protein under controlled conditions, i.e., in the presence or absence of hydrogen peroxide and its subsequent degradation by the enzyme catalase. […]
Before starting the transport activity, proteoliposomes were passed through a Sephadex G-75 column (0.7 cm diameter; 15 cm height; Pharmacia, Milan, Italy) to remove the external substrate. […] Finally, the external substrate was removed by chromatography on Sephadex G-75 columns (0.7 cm diameter; 10 cm height) and intraliposomal radioactivity was measured by a liquid scintillation counter (Perkin Elmer, Milan, Italy).

[4] = cited from earlier work

## O=C1CN(/N=C/c2ccc(-c3ccc([N+](=O)[O-])cc3)o2)C(O)=N1 [Dantrolene]
physchem
  recovery at 60 h, 20 μM: 92%
[1]
  IC50: 4.19 ± 0.73 µM
[1]; Michaelis–Menten / Lineweaver–Burk, substrate acetylthiocoline
  hAChE inhibition mechanism: noncomp.
[1]; fold lower than reference compound galantamine
  potency of AChE inhibition relative to galantamine: seven-fold lower
[1]; substrate acetylthiocoline, mean ± SEM
  Ki: 6.3 ± 0.15 µM
[2]
  DPPH radical scavenging activity: no activity
[3]
  increase in transport activity on cysteine mutants: significantly lost
[4]
  concentration found in the cytosolic compartment in vivo: 10 µM
